In brackets after ≈: the same amount, converted by molar mass.

Usually MIC stands for the smallest concentration in the dilution series that meets the test's criterion for growth inhibition. A higher MIC goes with a need for much substance.

Format in all cases: functional
For assay [1], the system named is Mycobacterium tuberculosis. The assay is described as follows: Antimycobacterial activity against isoniazid resistant Mycobacterium tuberculosis H37Rv ATCC 27294 measured after 7 days by resazurin microtiter assay. As to conditions: H37Rv ATCC 27294, 168 h. (The colour change of resazurin is a common sign of viable cells or microbes.)
Assay [2] has as its system Mycobacterium tuberculosis. The experiment in a line: Antimycobacterial activity against isoniazid resistant Mycobacterium tuberculosis measured after 7 days by resazurin microtiter assay. The note with it: 168 h.
The subject of assay [3] is Mycobacterium tuberculosis. The assay is described as follows: Antimycobacterial activity against isoniazid resistant Mycobacterium tuberculosis ATCC 35822 after 7 days by resazurin microtiter assay. The note with it: ATCC 35822, 168 h.

Consider `CC1(C)OC2=C(CC1Br)C(=O)C(=O)c1ccccc12` (stereo not drawn), for which the MIC in assay [1] was determined as 6.25 µg/mL (≈ 19.5 µM); in assay [2] it was 3.12 µg/mL (≈ 9.71 µM); in assay [3], 6.25 µg/mL (≈ 19.5 µM).
`CC1(C)OC2=C(C(=O)C(=O)c3ccccc32)C1Nc1ccccc1` (stereo not drawn): the results for the MIC in assay [1], in assay [2] and in assay [3] were 3.12 µg/mL (≈ 9.77 µM), 6.25 µg/mL (≈ 19.6 µM) and 3.12 µg/mL (≈ 9.77 µM), respectively.
Regarding `O=C1C(=O)c2ccccc2C2=C1CC(Cn1cc(-c3ccccc3)nn1)O2` (stereo not drawn), the MIC in assay [1] was 12.5 µg/mL (≈ 35 µM); in assay [2], 25 µg/mL (≈ 70 µM); in assay [3], 25 µg/mL (≈ 70 µM).
On to `CC1CC2=C(O1)c1ccccc1/C(=N/NC(=O)c1ccncc1)C2=O` (stereo not drawn), for which the MIC in assay [1] is 12.5 µg/mL (≈ 37.5 µM); in assay [2] it was 25 µg/mL (≈ 75 µM); in assay [3] it was 12.5 µg/mL (≈ 37.5 µM).
For the molecule `CC1(C)OC2=C(CC1I)C(=O)C(=O)c1ccccc12` (stereo not drawn), the MIC in assay [1] was 3.12 µg/mL (≈ 8.47 µM); in assay [2], 6.25 µg/mL (≈ 17 µM); in assay [3] it was 3.12 µg/mL (≈ 8.47 µM).
For `CC1(C)OC2=C(C(=O)/C(=N\NC(=O)c3ccncc3)c3ccccc32)[C@H](n2cc(-c3ccccc3)nn2)[C@H]1Br`, the values for the MIC in assay [1], in assay [2] and in assay [3] were 200 µg/mL (≈ 343 µM), greater than 200 µg/mL and 200 µg/mL (≈ 343 µM), respectively.
Regarding `CC1(C)CC2=C(O1)c1ccccc1/C(=N/NC(=O)c1ccncc1)C2=O`, the MIC in assay [1] was found to be 0.78 µg/mL (≈ 2.25 µM); in assay [2], 6.25 µg/mL (≈ 18 µM); in assay [3], 50 µg/mL (≈ 144 µM).
Consider `CC1(C)OC2=C(CC1Br)C(=O)/C(=N\NC(=O)c1ccncc1)c1ccccc12` (stereo not drawn), for which the MIC in assay [1], in assay [2] and in assay [3] was 12.5 µg/mL (≈ 28.4 µM) in each case.
Regarding `CC1(C)OC2=C(C(=O)/C(=N\NC(=O)c3ccncc3)c3ccccc32)C1n1cc(-c2ccccc2)nn1` (stereo not drawn), the MIC in assay [1], in assay [2] and in assay [3] was 12.5 µg/mL (≈ 25.5 µM) throughout.
`CC1(C)OC2=C(C(=O)C(=O)c3ccccc32)C1n1cc(-c2ccccc2)nn1` (stereo not drawn): the MIC in assay [1] was determined as 6.25 µg/mL (≈ 16.8 µM); in assay [2] it was 25 µg/mL (≈ 67.3 µM); in assay [3], 25 µg/mL (≈ 67.3 µM).
Regarding `O=C1C2=C(OC(Cn3cc(-c4ccccc4)nn3)C2)c2ccccc2/C1=N/NC(=O)c1ccncc1` (stereo not drawn), the minimal inhibitory concentration (MIC) in assay [1] is 12.5 µg/mL (≈ 26.2 µM); in assay [2], 50 µg/mL (≈ 105 µM); in assay [3], 50 µg/mL (≈ 105 µM).
As for `CC1(C)OC2=C(C(=O)/C(=N\NC(=O)c3ccncc3)c3ccccc32)C1Nc1ccccc1` (stereo not drawn), the MIC in assay [1] was 25 µg/mL (≈ 57 µM); in assay [2], 25 µg/mL (≈ 57 µM); in assay [3], 100 µg/mL (≈ 228 µM).
Regarding `CC1(C)OC2=C(C(=O)/C(=N\NC(=O)c3ccncc3)c3ccccc32)C1O` (stereo not drawn), the MIC in assay [1] turned out to be 6.25 µg/mL (≈ 17.2 µM); in assay [2] it was 100 µg/mL (≈ 275 µM); in assay [3] it was 200 µg/mL (≈ 550 µM).
On the same counts, the results for `CC1(C)CC2=C(O1)/C(=N\NC(=O)c1ccncc1)c1ccccc1C2=O` are 25 µg/mL (≈ 72 µM), 200 µg/mL (≈ 576 µM) and 100 µg/mL (≈ 288 µM).
For the molecule `CC1(C)CCC2=C(O1)c1ccccc1/C(=N/NC(=O)c1ccncc1)C2=O`, the MIC was 0.78 µg/mL (≈ 2.16 µM) in assay [1], 6.25 µg/mL (≈ 17.3 µM) in assay [2] and 50 µg/mL (≈ 138 µM) in assay [3].
For the molecule `CC1(C)OC2=C(CC1I)C(=O)/C(=N\NC(=O)c1ccncc1)c1ccccc12` (stereo not drawn), the MIC in assay [1], in assay [2] and in assay [3] was 100 µg/mL (≈ 205 µM) in each case.
As for `CC1(C)CCC2=C(O1)/C(=N\NC(=O)c1ccncc1)c1ccccc1C2=O`, the MIC in assay [1], in assay [2] and in assay [3] was greater than 200 µg/mL each time.
Regarding `CC1(C)OC2=C(C(=O)C(=O)c3ccccc32)C1O` (stereo not drawn), the results for the MIC in assay [1], in assay [2] and in assay [3] were 12.5 µg/mL (≈ 51.2 µM), 25 µg/mL (≈ 102 µM) and 25 µg/mL (≈ 102 µM), respectively.
As to `CC1(C)CC2=C(O1)C(=O)c1ccccc1C2=O`, the MIC was found to be 12.5 µg/mL (≈ 54.8 µM) in assay [1], 25 µg/mL (≈ 110 µM) in assay [2] and 25 µg/mL (≈ 110 µM) in assay [3].
`CC1(C)OC2=C(C(=O)C(=O)c3ccccc32)[C@H](n2cc(-c3ccccc3)nn2)[C@H]1Br` (racemic): the MIC was 1.56 µg/mL (≈ 3.36 µM) in assay [1], 12.5 µg/mL (≈ 26.9 µM) in assay [2] and 6.25 µg/mL (≈ 13.5 µM) in assay [3].
As for `CC1(C)CCC2=C(O1)C(=O)c1ccccc1C2=O` [ALPHA-LAPACHONE], in assay [1], inhibition of growth (MIC) required 103 µg/mL (≈ 426 µM).
Regarding `NNC(=O)c1ccncc1` [ISONIAZID], the values for the MIC in assay [1], in assay [2] and in assay [3] were 0.03 µg/mL (≈ 0.219 µM), 0.25 µg/mL (≈ 1.82 µM) and 2 µg/mL (≈ 14.6 µM), respectively.
In the case of `CC1(C)CCC2=C(O1)c1ccccc1C(=O)C2=O` [LAPACHONE], the MIC is 1.56 to 6.25 µg/mL (≈ 6.44 to 25.8 µM) in assay [1], 6.25 µg/mL (≈ 25.8 µM) in assay [2] and 3.12 µg/mL (≈ 12.9 µM) in assay [3].
Turning to `CC1(C)CC2=C(O1)c1ccccc1C(=O)C2=O` [NOR-BETA-LAPACHONE], the MIC in assay [1] worked out at 3.12 µg/mL (≈ 13.7 µM); in assay [2], 6.25 µg/mL (≈ 27.4 µM); in assay [3] it was 12.5 µg/mL (≈ 54.8 µM).
In the case of `CO[C@H]1/C=C/O[C@@]2(C)Oc3c(C)c(O)c4c(O)c(c(/C=N/N5CCN(C)CC5)c(O)c4c3C2=O)NC(=O)/C(C)=C\C=C\[C@H](C)[C@H](O)[C@@H](C)[C@@H](O)[C@@H](C)[C@H](OC(C)=O)[C@@H]1C` [RIFAMPIN], the MIC is no more than 0.03 µg/mL in assay [1], greater than 8 µg/mL in assay [2] and no more than 0.03 µg/mL in assay [3].

Source of the values: ChEMBL document CHEMBL4393738, “Design of hybrid molecules as antimycobacterial compounds: Synthesis of isoniazid-naphthoquinone derivatives and their activity against susceptible and resistant strains of Mycobacterium tuberculosis” (Bioorg Med Chem, 2019).
